Columns and labels:
[1] = target: T1, c-kit kinase (Homo sapiens, UniProt P10721); test: c-Kit biochemical assay, AlphaScreen, 10 μM ATP; conditions: c-kit biochemical inhibitory activity; read-out: Biochemical activity (IC50 μM) Kit
T1 construct: The c-kit (or kinase domain thereof) is an active kinase in AlphaScreen; poly-Histidine tag (in-house protein only) (cleaved yes); host or cells: E. coli BL21(DE3)RIL, co-expressed with PTP1B
Outline: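 His-tagged c-Kit expressed in E. coli with co-expressed PTP1B (dephosphorylated), tag removed; 0.1 ng per reaction with biotinylated-peptide substrate in 50 mM HEPES pH 7.2, 5 mM MgCl2, 5 mM MnCl2, 5% DMSO, 10 μM ATP, 1 h at room temperature. Phosphorylation detected by AlphaScreen (streptavidin donor, PY20 acceptor beads); IC50 from 8-point 1:3 dilution series.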

[2] = target: T2, c-kit mutant D816V (Homo sapiens, UniProt P10721, D816V/DEL694-753); test: c-Kit mutant D816V biochemical assay, AlphaScreen; conditions: c-kit D816V biochemical inhibitory activity; read-out: Biochemical activity (IC50 μM) Kit D816V
T2 construct: residues 551-934, kinase insertion domain residues 694-753 deleted; 6x-histidine (N); made in house; host or cells: E. coli Arctic Express (DE3) RIL (Stratagene)
Outline: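 Purified His-tagged c-Kit D816V (E. coli-expressed) assayed in 25 mM HEPES pH 7.2 with Mg/Mn, 5% DMSO and 10 μM ATP, 30 min at room temperature, 8-point 1:3 dilutions. Phosphorylation detected by AlphaScreen with streptavidin donor and PY20 acceptor beads; IC50 from signal versus concentration.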

T2 sequence (P10721 with tags, fused parts or gaps DEL694-753/D816V): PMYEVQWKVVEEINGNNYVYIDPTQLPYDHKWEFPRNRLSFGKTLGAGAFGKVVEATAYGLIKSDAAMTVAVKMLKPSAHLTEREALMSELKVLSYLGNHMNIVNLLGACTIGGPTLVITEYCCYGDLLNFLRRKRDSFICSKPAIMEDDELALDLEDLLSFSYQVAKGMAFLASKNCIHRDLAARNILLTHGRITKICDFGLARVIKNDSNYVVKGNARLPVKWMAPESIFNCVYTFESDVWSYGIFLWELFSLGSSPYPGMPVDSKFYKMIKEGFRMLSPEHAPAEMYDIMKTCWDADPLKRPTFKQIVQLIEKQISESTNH
T1 sequence (P10721 26-976): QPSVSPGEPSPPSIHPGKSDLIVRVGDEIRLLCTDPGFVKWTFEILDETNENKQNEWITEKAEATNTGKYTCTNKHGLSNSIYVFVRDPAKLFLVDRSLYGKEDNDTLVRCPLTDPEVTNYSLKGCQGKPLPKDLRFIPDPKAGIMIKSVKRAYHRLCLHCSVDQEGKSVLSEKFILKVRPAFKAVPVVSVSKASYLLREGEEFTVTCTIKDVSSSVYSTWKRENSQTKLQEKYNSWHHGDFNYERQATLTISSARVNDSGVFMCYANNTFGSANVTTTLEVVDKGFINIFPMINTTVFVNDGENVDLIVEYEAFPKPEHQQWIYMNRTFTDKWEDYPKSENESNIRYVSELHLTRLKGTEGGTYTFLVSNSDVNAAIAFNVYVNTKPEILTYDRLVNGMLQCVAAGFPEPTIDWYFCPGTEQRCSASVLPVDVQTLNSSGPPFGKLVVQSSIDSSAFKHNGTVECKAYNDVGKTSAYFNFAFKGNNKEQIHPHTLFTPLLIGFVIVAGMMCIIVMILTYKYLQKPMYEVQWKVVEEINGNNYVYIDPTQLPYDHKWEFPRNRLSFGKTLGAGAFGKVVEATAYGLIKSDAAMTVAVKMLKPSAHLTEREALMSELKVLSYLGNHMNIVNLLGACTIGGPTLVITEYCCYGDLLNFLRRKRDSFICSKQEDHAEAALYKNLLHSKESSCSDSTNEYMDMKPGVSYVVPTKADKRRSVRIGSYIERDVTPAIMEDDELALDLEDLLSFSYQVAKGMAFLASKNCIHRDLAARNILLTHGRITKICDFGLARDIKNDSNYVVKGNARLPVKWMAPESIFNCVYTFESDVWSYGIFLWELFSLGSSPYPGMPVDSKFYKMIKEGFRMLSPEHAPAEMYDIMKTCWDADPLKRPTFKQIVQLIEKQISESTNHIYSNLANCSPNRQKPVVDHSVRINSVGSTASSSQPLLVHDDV

Structure (SMILES) | IC50 [1] [µM] | IC50 [2] [µM]
O=C(NCc1ccc(F)cc1)N1CCN(c2ncnc3cc(C4=CCNCC4)sc23)CC1 [P-0615, N-[(4-fluorophenyl)methyl]-4-[6-(1,2,3,6-tetrahydropyridin-4-yl)thieno[3,2-d]pyrimidin-4-yl]piperazine-1-carboxamide] | 1 to 10 | 0.0001 to 1
CN(C)C(=O)c1cccc(-c2cc3c(N4CCN(C(=O)Nc5ccc(OC(F)(F)F)cc5)CC4)ncnc3[nH]2)c1 [P-0085, 4-[6-[3-(dimethylcarbamoyl)phenyl]-7H-pyrrolo[2,3-d]pyrimidin-4-yl]-N-[4-(trifluoromethoxy)phenyl]piperazine-1-carboxamide] | 0.0001 to 1 | 0.0001 to 1
O=C(Nc1ccc(OC(F)(F)F)cc1)N1CCN(c2ncnc3[nH]c(-c4ccc(Cl)cc4)cc23)CC1 [P-0134, 4-[6-(4-chlorophenyl)-7H-pyrrolo[2,3-d]pyrimidin-4-yl]-N-[4-(trifluoromethoxy)phenyl]piperazine-1-carboxamide] | 0.0001 to 1 | 1 to 10
Cc1ccc(S(=O)(=O)Nc2ccc(-c3ncnc4cc(C5=CCN(C(=O)N6CCOCC6)CC5)sc34)cc2)cc1 [P-0590, 4-methyl-N-[4-[6-[1-(morpholine-4-carbonyl)-3,6-dihydro-2H-pyridin-4-yl]thieno[3,2-d]pyrimidin-4-yl]phenyl]benzenesulfonamide] | 0.0001 to 1 | 0.0001 to 1
CCOc1cccc(-c2[nH]c(C3CCN(c4ncnc5[nH]c(-c6ccnc(OC)c6)cc45)CC3)nc2C)c1 [P-0714, 4-[4-[5-(3-ethoxyphenyl)-4-methyl-1H-imidazol-2-yl]-1-piperidyl]-6-(2-methoxy-4-pyridyl)-7H-pyrrolo[2,3-d]pyrimidine] | 10 to 200 | 0.0001 to 1
O=S(=O)(Nc1ccc(-c2ncnc3[nH]c(-c4ccc(F)cc4)cc23)cc1)c1ccc(F)cc1 [P-0404, 4-fluoro-N-[4-[6-(4-fluorophenyl)-7H-pyrrolo[2,3-d]pyrimidin-4-yl]phenyl]benzenesulfonamide] | 0.0001 to 1 | 0.0001 to 1
CCCCS(=O)(=O)Nc1ccc(-c2ncnc3[nH]c(-c4ccc(F)cc4)cc23)cc1 [P-0419, N-[4-[6-(4-fluorophenyl)-7H-pyrrolo[2,3-d]pyrimidin-4-yl]phenyl]butane-1-sulfonamide] | 10 to 200 | 0.0001 to 1
Cc1cc2c(-c3ccc(NS(=O)(=O)c4ccc(OC(F)F)cc4)c(F)c3)ncnc2[nH]1 [P-0360, 4-(difluoromethoxy)-N-[2-fluoro-4-(6-methyl-7H-pyrrolo[2,3-d]pyrimidin-4-yl)phenyl]benzenesulfonamide] | 1 to 10 | 10 to 200
O=S(=O)(NCC1CC1)c1ccc(-c2ncnc3[nH]c(-c4ccc(F)cc4)cc23)c(F)c1 [P-0369, N-(cyclopropylmethyl)-3-fluoro-4-[6-(4-fluorophenyl)-7H-pyrrolo[2,3-d]pyrimidin-4-yl]benzenesulfonamide] | 10 to 200 | 1 to 10
O=C(C1CC1)N1CC=C(c2cc3ncnc(-c4ccc(NS(=O)(=O)c5ccc(F)cc5)cc4)c3s2)CC1 [P-0570, N-[4-[6-[1-(cyclopropanecarbonyl)-3,6-dihydro-2H-pyridin-4-yl]thieno[3,2-d]pyrimidin-4-yl]phenyl]-4-fluoro-benzenesulfonamide] | 0.0001 to 1 | 0.0001 to 1
O=C(Nc1ccccc1Cl)N1CCN(c2ncnc3[nH]c(-c4cccnc4)cc23)CC1 [P-0219, N-(2-chlorophenyl)-4-[6-(3-pyridyl)-7H-pyrrolo[2,3-d]pyrimidin-4-yl]piperazine-1-carboxamide] | 10 to 200 | 1 to 10
CCCNC(=O)N1CCN(c2ncnc3[nH]c(-c4ccccc4)cc23)CC1 [P-0236, 4-(6-phenyl-7H-pyrrolo[2,3-d]pyrimidin-4-yl)-N-propyl-piperazine-1-carboxamide] | 1 to 10 | 10 to 200
Cc1cc2c(-c3ccc(NS(=O)(=O)c4ccc(C)c(F)c4)c(F)c3)ncnc2[nH]1 [P-0350, 3-fluoro-N-[2-fluoro-4-(6-methyl-7H-pyrrolo[2,3-d]pyrimidin-4-yl)phenyl]-4-methyl-benzenesulfonamide] | 1 to 10 | 1 to 10

From US10227357B2, “Compounds and methods for kinase modulation, and indications therefor” (Plexxikon Inc., priority 2012, dated 2019)
